Data on eleven compounds can be found in US20010044151A1, “Ligands for modulating the expression of exogenous genes via an ecdysone receptor complex” (priority 1998, published 2001).

For the assay, the target named is T1, VgEcR and RXR heterodimeric receptor (pVgRXR) with pIND/LacZ(SPI) in CHO cells (Drosophila melanogaster, UniProt P34021, E282G/G283S/G286V).
T1 construct: host or cells: CHO cells (ATCC CCL-61), transiently transfected or stably transformed with pVgRXR
T1 sequence (P34021 1-878 E282G/G283S/G286V): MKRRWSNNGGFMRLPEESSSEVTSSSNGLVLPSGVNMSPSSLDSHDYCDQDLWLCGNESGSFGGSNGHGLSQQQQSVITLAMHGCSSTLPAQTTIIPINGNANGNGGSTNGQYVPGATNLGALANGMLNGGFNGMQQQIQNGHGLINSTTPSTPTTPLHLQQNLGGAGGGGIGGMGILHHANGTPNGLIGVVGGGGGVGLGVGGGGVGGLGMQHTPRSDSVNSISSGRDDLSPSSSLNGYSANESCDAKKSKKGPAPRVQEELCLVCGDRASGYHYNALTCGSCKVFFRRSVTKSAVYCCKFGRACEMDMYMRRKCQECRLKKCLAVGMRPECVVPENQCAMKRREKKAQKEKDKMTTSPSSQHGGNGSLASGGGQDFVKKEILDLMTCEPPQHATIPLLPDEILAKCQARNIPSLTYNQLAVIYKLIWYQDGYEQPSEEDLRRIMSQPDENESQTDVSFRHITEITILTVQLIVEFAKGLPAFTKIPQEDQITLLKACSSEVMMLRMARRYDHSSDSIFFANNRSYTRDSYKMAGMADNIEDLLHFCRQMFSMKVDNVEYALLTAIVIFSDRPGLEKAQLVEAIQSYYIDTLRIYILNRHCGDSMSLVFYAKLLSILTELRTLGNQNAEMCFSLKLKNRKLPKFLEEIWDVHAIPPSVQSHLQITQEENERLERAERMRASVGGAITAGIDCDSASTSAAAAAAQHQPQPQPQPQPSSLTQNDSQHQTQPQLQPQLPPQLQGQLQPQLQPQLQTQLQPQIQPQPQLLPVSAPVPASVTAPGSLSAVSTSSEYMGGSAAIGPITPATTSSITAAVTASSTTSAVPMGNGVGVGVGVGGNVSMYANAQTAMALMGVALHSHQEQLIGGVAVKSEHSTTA
T1 sequence (P19793 1-462 partner): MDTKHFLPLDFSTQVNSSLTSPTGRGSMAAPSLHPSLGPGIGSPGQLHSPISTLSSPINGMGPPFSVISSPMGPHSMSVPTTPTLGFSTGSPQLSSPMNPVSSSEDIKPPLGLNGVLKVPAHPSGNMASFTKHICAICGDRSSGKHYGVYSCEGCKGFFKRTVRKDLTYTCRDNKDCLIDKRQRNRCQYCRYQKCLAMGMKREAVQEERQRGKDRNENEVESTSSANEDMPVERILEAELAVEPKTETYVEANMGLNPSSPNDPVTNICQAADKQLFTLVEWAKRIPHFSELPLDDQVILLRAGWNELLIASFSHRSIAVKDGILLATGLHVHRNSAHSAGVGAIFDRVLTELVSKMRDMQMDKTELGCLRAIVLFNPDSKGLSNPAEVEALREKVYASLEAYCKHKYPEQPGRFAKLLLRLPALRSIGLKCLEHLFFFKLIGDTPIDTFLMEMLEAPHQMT
Nature of the assay: β-Galactosidase gene activation in stably transformed CHO cells. It counts as cell-based. The conditions noted are these: ligand 10 μM; for β-Galactosidase activity: average of triplicate samples, no ligand = 200; for Induction Ratio (RLU in presence and absence of the ligand): β-galactosidase. An excerpt:
pVgRXR (Invitrogen Corp., Carlsbad, Calif.) is an […] plasmid that expresses both VgEcR and RXR to form a modified heterodimeric nuclear receptor (see No, D., et. al., (1996) Proc. Natl. Acad. Sci. USA, 93, 3346-3351). The ecdysone receptor (VgEcR) is derived from the natural Drosophila ecdysone receptor and modified to contain the VP16 transactivation domain (see Cress, W. D., and Triezenberg, S. J. (1991), Science 251, 87-90; Sadowski, I., et. al (1988) Nature 335, 563-564; Triezenberg, S. J et. al., (1988), Genes Dev 2, 718-729; Triezenberg, S. J., et. al., (1988), Genes Dev 2, 730-742). RXR as the mammalian homologue of USP (ultraspiracle), the natural partner to the Drosophila ecdysone receptor (see Yao, T. -P., et. al., (1993), Nature 366, 476-479, Yao, T. -P., et. al., (1992), Cell 71, 63-72). The P-box region of the VgEcR DNA binding domain was modified to recognize the hybrid ecdysone response element that consists of one half-site from the gluccorticoid response element (see Umesono, K., and Evans, R. M. (1989), Cell 57, 1139-1146) and one half-site from the natural ecdysone response element. This hybrid response element reduces any possible interaction with the farsenoid X receptor that may bind the natural ecdysone responsive element (EcRE). The cytomegalovirus enhancer-promoter drives expression of VgEcR, and the Rous sarcoma virus promoter drives expression of RXR. The vector pIND (Invitrogen Corp) is a 5024 bp vector based on pcDNA3.1. It contains five hybrid E/GREs recognized by the modified ecdysone receptor expressed from pVgRXR and a minimal heat shock promoter (see Yao, T. P., et. al., (1993), Nature, 366, 476-479). pIND/lacZ (Invitrogen Crop.) is a 8170 bp plasmid that contains the β-galactosidase gene as a reporter enzyme. Cotransfection of pIND/lacZ and pVgRXR results in the induction of β-galactosidase expression upon addition of ecdysone agonists such as muristerone A. The reporter plasmid pIND/luc was constructed by subcloning the firefly luciferase gene from pGL3 (Promega/E1741) as a Nhe I-BamHI fragment into pIND, also digested with Nhe I and BamHI.
CHO cells stably transformed with pVgRXR and pIND/LacZ(SPI) (Invitrogen Crop.) were maintained in Hams F-12 media containing 10% FBS, 2 mM glutamine, 300 μg/ml Zeocin (Invitrogen Crop.) and 300 μg/ml Hygromycin B. pIND(SPI), an alternative to the pIND vector, can be induced to absolute expression levels five-fold greater than that of pIND due to the presence of 3 cis-acting SPI elements. Basal expression levels are correspondingly greater.
Stock solutions (10^−2 M) were prepared for muristerone A and the non-steroidal ligands of the present invention in ethanol and acetone respectively, and stored at −20° C. Twenty-four hours after transfection, a test compound was added at a final concentration of 10 μM (10^−5 M) to each 1 ml cell culture well. Muristerone A (Sigma, M7888) at 10 μM concentration was used as a positive control. Acetone alone was added as a negative control.
Reporter gene expression was evaluated 24-48 hours after treatment of transiently transfected cells or 24 hours after treatment of the stably transformed cell line with test ligands. β-galactosidase was assayed by either staining fixed cells or assaying for enzymatic activity in cellular lysates. β-galactosidase catalyzes the hydrolysis of the β-galactoside, X-gal (5-bromo-4-chloro-3-indolyl-β-galactopyranoside) producing a blue color within the fixed cells (Invitrogen, K1465-01) that can be visualized under a microscope. Alternatively, reporter lysis buffer (RLB; Promega/E397A) was used to lyse the cells for the detection of β-galactosidase activity using a chemiluminescent substrate, Galacto-Star (Tropix/BM100S). The cells within each 12-well plate were lysed with 250 μl of RLB. Twenty μl of each extract was assayed with 100 μl of substrate. […]

Take `Cc1cc(C)cc(C(=O)N(NC(=O)c2ccc3c(c2C)OCCO3)C(C)(C)C)c1` [Ligand 2]: the β-Galactosidase activity amounted to 536 RLU; the “Induction Ratio (RLU in presence and absence of the ligand)” value (shortened to “Induction Ratio”) is 3.

Regarding `CC(C)(C)N(NC(=O)c1ccccc1)C(=O)c1ccccc1` [CE-2, 1,2-dibenzoyl-1-tert-butyl-hydrazine, reference compound], the β-Galactosidase activity is 145 RLU; the “Induction Ratio” value worked out at 1.

For `CCc1c(OC)cccc1C(=O)NN(C(=O)c1cc(F)cc(F)c1)C(C)(C)C` [Ligand 4], the β-Galactosidase activity is given as 1963 RLU; the “Induction Ratio” value was found to be 10.

In the case of `CCc1c(OC)cccc1C(=O)NN(C(=O)c1cccc(OC)c1)C(C)(C)C` [Ligand 1], the β-Galactosidase activity came out at 1123 RLU; the “Induction Ratio” value was determined as 6.

Take `CC(C)CC[C@@H](O)[C@](C)(O)[C@H]1CC[C@@]2(O)C3=CC(=O)[C@]4(O)C[C@@H](O)[C@@H](O)C[C@]4(C)[C@H]3[C@H](O)C[C@]12C` [CE-3, muristerone A, reference compound]: the β-Galactosidase activity was found to be 9830 RLU; the “Induction Ratio” value came out at 49.

In the case of `COc1cccc(C(=O)NN(C(=O)c2cc(C)cc(C)c2)C(C)(C)C)c1C` [Ligand 3], the β-Galactosidase activity is recorded as 681 RLU; the “Induction Ratio” value is reported as 3.

With `CC(C)CC[C@@H](O)[C@](C)(O)[C@H]1CC[C@@]2(O)C3=CC(=O)[C@@H]4C[C@@H](O)[C@@H](O)C[C@]4(C)[C@H]3CC[C@]12C` [CE-4, ponasterone A, reference compound], the β-Galactosidase activity was determined as 10386 RLU; the “Induction Ratio” value was 52.

`CCc1c(OC)cccc1C(=O)NN(C(=O)c1cc(Cl)cc(Cl)c1)C(C)(C)C` [Ligand 13]: the β-Galactosidase activity is given as 6667 RLU; the “Induction Ratio” value turned out to be 33.

With `CCc1c(OC)cccc1C(=O)NN(C(=O)c1cc(C)cc(C)c1)C(C)(C)C` [Ligand 5], the β-Galactosidase activity was 11599 RLU; the “Induction Ratio” value is recorded as 58.

With `CCc1ccc(C(=O)NN(C(=O)c2cc(C)cc(C)c2)C(C)(C)C)cc1` [CE-1, N-(4-ethylbenzoyl)-N′-(3,5-dimethylbenzoyl)-N′-tert-butyl-hydrazine, reference compound], the β-Galactosidase activity amounted to 323 RLU; the “Induction Ratio” value was 2.

As to `CCOc1cccc(C(=O)NN(C(=O)c2cc(C)cc(C)c2)C(C)(C)C)c1CC` [Ligand 12], the β-Galactosidase activity is listed as 9830 RLU; the “Induction Ratio” value was 49.
